This passage reports IC50 results from patent US9340590B2 (priority 2011, dated 2016).

Read-outs that look alike come from different tables or passages of the source. Positions of bridges follow the written chain, without caps; N, C: chain ends. Residues, ends and D or L forms follow the SMILES beside them.

Common to all, as to experiment: cell-based
One experiment deals with hNav1.5 (Homo sapiens, UniProt Q14524). The following applies: IonWorks Quattro, read-out: IWQ Use Nav1.5. On the technique in general: The patch-clamp technique gives a direct electrical read-out from membranes.
The target in another experiment is hNav1.3 (Homo sapiens, UniProt Q9NY46). The following applies: IonWorks Quattro, read-out: IWQ Use Nav1.3.
A further experiment addresses hNav1.7 (Homo sapiens, UniProt Q15858). It counts as cell-based.
The mark [1] stands for this setting: IonWorks Quattro, use-dependent block, hNav1.7, read-out: IWQ Use Nav1.7.
The mark [2] stands for this setting: clamped to −110 mV, depolarized to −10 mV, 5 min after compound, n=2.

Chain of hNav1.5 (Q14524 whole entry, looked up): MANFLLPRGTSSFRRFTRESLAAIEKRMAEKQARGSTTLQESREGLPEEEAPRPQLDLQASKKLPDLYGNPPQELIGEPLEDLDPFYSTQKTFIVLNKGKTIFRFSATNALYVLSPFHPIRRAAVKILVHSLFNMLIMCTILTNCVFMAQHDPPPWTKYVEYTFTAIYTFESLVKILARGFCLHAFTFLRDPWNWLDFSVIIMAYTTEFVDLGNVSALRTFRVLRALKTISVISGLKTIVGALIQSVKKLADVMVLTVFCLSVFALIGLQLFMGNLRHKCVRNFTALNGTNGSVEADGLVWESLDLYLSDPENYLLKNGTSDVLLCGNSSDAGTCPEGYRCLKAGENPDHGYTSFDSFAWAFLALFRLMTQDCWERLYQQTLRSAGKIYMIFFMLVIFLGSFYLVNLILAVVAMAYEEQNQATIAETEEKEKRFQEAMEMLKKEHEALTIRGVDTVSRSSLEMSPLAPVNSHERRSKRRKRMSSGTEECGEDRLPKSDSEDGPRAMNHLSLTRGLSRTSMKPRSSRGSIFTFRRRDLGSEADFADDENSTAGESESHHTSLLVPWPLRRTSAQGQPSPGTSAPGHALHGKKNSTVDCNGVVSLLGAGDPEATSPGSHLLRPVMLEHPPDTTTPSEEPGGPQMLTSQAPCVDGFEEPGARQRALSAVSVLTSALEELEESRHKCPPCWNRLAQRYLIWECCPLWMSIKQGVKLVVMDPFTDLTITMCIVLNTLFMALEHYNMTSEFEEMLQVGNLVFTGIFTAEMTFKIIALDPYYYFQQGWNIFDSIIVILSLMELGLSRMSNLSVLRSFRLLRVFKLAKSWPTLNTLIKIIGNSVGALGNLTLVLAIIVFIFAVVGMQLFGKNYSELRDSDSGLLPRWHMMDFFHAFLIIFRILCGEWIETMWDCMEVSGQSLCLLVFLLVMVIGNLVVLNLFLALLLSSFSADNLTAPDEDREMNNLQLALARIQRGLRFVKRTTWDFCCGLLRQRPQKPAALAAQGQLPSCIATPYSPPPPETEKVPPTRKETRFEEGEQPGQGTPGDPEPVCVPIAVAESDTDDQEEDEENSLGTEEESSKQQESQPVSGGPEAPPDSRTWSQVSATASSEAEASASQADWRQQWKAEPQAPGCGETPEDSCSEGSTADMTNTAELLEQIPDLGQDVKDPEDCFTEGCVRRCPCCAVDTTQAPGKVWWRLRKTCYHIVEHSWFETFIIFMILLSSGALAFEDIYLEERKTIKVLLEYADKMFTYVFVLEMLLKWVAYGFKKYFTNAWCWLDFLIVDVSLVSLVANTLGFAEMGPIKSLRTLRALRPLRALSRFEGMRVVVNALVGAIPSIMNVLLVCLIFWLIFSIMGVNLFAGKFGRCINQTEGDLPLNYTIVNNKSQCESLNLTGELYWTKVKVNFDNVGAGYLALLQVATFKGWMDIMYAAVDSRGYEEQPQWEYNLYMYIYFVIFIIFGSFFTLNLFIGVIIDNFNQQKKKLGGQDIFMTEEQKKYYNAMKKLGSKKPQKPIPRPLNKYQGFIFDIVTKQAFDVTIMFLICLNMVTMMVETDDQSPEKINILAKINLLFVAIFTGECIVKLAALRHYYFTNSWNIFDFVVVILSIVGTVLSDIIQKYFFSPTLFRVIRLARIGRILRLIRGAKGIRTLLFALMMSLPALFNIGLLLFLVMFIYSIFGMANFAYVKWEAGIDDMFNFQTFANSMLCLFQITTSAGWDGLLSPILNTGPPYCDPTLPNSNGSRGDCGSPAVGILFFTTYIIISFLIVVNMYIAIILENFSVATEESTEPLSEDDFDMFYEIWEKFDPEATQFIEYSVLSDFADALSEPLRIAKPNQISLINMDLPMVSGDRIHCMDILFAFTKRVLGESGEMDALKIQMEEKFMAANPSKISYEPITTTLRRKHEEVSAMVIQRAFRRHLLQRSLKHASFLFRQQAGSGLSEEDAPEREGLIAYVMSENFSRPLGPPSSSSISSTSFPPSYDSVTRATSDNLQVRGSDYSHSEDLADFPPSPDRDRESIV
Chain of hNav1.7 (Q15858 whole entry, looked up): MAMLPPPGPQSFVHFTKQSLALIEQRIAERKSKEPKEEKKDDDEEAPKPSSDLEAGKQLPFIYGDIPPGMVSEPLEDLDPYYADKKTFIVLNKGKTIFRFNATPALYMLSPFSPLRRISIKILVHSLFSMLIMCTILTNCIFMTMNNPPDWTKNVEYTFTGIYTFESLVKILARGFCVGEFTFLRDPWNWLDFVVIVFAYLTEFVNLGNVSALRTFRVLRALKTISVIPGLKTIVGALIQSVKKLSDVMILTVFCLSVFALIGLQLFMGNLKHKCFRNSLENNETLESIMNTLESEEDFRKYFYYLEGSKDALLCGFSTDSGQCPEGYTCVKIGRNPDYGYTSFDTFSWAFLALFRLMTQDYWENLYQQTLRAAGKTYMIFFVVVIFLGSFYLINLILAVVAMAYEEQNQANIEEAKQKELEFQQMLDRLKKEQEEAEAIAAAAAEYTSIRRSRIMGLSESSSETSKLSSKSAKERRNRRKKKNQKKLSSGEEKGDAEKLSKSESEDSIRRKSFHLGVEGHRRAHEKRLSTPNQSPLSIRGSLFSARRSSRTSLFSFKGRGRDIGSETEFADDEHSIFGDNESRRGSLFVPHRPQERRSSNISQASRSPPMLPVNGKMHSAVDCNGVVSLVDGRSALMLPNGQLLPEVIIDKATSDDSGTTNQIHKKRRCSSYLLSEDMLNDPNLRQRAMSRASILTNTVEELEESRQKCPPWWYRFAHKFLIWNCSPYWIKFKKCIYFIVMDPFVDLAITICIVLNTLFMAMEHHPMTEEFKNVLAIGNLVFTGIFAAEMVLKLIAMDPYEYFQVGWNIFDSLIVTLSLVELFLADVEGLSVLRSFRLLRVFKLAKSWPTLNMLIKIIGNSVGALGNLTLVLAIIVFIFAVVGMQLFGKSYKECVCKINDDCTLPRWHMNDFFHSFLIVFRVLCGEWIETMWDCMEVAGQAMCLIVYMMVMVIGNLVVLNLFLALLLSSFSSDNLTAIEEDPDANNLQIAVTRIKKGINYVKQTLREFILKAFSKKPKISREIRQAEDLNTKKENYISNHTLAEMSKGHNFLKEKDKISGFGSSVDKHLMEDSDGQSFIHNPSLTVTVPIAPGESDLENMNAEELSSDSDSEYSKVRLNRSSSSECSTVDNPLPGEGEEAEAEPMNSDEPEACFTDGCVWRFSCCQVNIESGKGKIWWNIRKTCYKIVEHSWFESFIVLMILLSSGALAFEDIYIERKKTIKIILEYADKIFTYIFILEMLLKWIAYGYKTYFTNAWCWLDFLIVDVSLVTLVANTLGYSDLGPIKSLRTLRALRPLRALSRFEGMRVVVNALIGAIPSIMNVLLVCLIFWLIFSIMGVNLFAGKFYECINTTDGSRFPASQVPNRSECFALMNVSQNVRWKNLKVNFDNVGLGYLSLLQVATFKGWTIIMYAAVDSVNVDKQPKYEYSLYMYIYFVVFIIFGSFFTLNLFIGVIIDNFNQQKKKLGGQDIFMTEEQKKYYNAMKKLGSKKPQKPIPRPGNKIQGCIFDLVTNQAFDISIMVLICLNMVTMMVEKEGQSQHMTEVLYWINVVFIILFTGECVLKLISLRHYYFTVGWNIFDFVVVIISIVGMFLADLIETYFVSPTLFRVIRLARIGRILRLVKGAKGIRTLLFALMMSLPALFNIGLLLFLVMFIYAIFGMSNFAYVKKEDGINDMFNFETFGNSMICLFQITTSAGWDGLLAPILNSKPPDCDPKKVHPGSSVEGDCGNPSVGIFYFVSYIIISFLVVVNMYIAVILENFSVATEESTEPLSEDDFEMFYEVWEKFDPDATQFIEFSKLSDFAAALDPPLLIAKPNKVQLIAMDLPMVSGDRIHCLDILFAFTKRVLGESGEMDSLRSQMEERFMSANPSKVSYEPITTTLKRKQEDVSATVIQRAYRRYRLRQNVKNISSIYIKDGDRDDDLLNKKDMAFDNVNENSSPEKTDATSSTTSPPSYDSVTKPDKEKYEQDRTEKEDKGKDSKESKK

Turning to `CC[C@H](C)[C@@H]1NC(=O)[C@@H]2CSSC[C@@H]3NC(=O)[C@H](C(C)C)NC(=O)[C@H](CC(C)C)NC(=O)[C@H](CC(N)=O)NC(=O)[C@@H]4CCCN4C(=O)[C@H](CCCNC(=N)N)NC(=O)[C@H](CSSC[C@H](NC(=O)[C@@H](N)CC(=O)O)C(=O)N[C@@H](CC(C)C)C(=O)NCC(=O)N[C@@H](CC(C)C)C(=O)N[C@@H](Cc4ccccc4)C(=O)N[C@@H](CCCNC(=N)N)C(=O)N[C@@H](CCCCN)C(=O)N2)NC(=O)[C@H](CSSC[C@@H](C(=O)N[C@@H](CCCCN)C(=O)N[C@@H](Cc2ccc(O)cc2)C(=O)N[C@H](C(=O)N[C@@H](Cc2ccccc2)C(N)=O)C(C)C)NC(=O)[C@H](Cc2c[nH]c4ccccc24)NC(=O)[C@H](CCCCN)NC(=O)[C@H](Cc2c[nH]cn2)NC(=O)[C@H]([C@@H](C)O)NC(=O)[C@H](CCCNC(=N)N)NC(=O)[C@H](CO)NC3=O)NC(=O)[C@H](CCCCN)NC(=O)[C@H](CC(=O)O)NC(=O)[C@H](CC(N)=O)NC(=O)[C@H](CC(=O)O)NC(=O)[C@@H]2CCCN2C1=O` [compound 612] (H-DCLGLFRKCIPDNDKCCRPNLVCSRTHKWCKYVF-NH2; disulfide 2-17, 9-23, 16-30), the IC50 is 20.1 µM at hNav1.5 (use-dependent block, hNav1.5); 220 nM on hNav1.3 (use-dependent block, hNav1.3); 57 nM at hNav1.7 (setting [1]).
For the molecule `CC[C@H](C)[C@@H]1NC(=O)[C@@H]2CSSC[C@@H]3NC(=O)CNC(=O)[C@H](CC(C)C)NC(=O)[C@H](CC(N)=O)NC(=O)[C@@H]4CCCN4C(=O)[C@H](CCCNC(=N)N)NC(=O)[C@H](CSSC[C@H](NC(=O)[C@@H](N)CC(=O)O)C(=O)N[C@@H](CC(C)C)C(=O)NCC(=O)N[C@@H](Cc4ccccc4)C(=O)N[C@@H](CCSC)C(=O)N[C@@H](CCCNC(=N)N)C(=O)N[C@@H](CCCCN)C(=O)N2)NC(=O)[C@H](CSSC[C@@H](C(=O)N[C@@H](CCCCN)C(=O)N[C@@H](Cc2ccc(O)cc2)C(=O)N[C@H](C(=O)N[C@@H](Cc2ccccc2)C(N)=O)C(C)C)NC(=O)[C@H](Cc2c[nH]c4ccccc24)NC(=O)[C@H](CCCCN)NC(=O)[C@H](Cc2c[nH]cn2)NC(=O)[C@H]([C@@H](C)O)NC(=O)[C@H](CCCNC(=N)N)NC(=O)[C@H](CO)NC3=O)NC(=O)[C@H](CCCCN)NC(=O)[C@H](CC(=O)O)NC(=O)[C@H](CC(N)=O)NC(=O)[C@H](CC(=O)O)NC(=O)[C@@H]2CCCN2C1=O` [compound 324] (H-DCLGFMRKCIPDNDKCCRPNLGCSRTHKWCKYVF-NH2; disulfide 2-17, 9-23, 16-30), the IC50 worked out at 10.9 µM at hNav1.5 (Use); 100 nM at hNav1.3 (Use); 140 nM on hNav1.7 (IonWorks Quattro, Use, read-out: IWQ Use Nav1.7).
On to `CC[C@H](C)[C@@H]1NC(=O)[C@@H]2CSSC[C@@H]3NC(=O)[C@H](C(C)C)NC(=O)[C@H](CC(C)C)NC(=O)[C@H](CC(N)=O)NC(=O)[C@@H]4CCCN4C(=O)[C@H](CCCNC(=N)N)NC(=O)[C@H](CSSC[C@H](NC(=O)[C@@H](N)CC(=O)O)C(=O)N[C@@H](CC(C)C)C(=O)NCC(=O)N[C@@H](Cc4ccccc4)C(=O)N[C@@H](CCSC)C(=O)N[C@@H](CCCNC(=N)N)C(=O)N[C@@H](CCCCN)C(=O)N2)NC(=O)[C@H](CSSC[C@@H](C(=O)N[C@@H](CCCCN)C(=O)N[C@@H](Cc2ccc(O)cc2)C(=O)N[C@H](C(=O)N[C@@H](C)C(N)=O)C(C)C)NC(=O)[C@H](Cc2c[nH]c4ccccc24)NC(=O)[C@H](CCCCN)NC(=O)[C@H](Cc2cnc[nH]2)NC(=O)[C@H]([C@@H](C)O)NC(=O)[C@H](CCCNC(=N)N)NC(=O)[C@H](CO)NC3=O)NC(=O)[C@H](CCCCN)NC(=O)[C@H](CC(=O)O)NC(=O)[C@H](CC(N)=O)NC(=O)[C@H](CC(=O)O)NC(=O)[C@@H]2CCCN2C1=O` [compound 101] (H-DCLGFMRKCIPDNDKCCRPNLVCSRTHKWCKYVA-NH2; disulfide 2-17, 9-23, 16-30), for which the IC50 was determined as 9.33 µM on hNav1.5 (use-dependent, […]); 4760 nM on hNav1.3 (use-dependent, […]); 7190 nM at hNav1.7.
Consider `CC[C@H](C)[C@@H]1NC(=O)[C@@H]2CSSC[C@@H]3NC(=O)[C@H](C(C)C)NC(=O)[C@H](CC(C)C)NC(=O)[C@H](CC(N)=O)NC(=O)[C@@H]4CCCN4C(=O)[C@H](CCCNC(=N)N)NC(=O)[C@H](CSSC[C@H](NC(=O)[C@@H](N)CC(=O)O)C(=O)N[C@@H](CC(C)C)C(=O)NCC(=O)N[C@@H](Cc4c[nH]cn4)C(=O)N[C@@H](CCSC)C(=O)N[C@@H](CCCNC(=N)N)C(=O)N[C@@H](CCCCN)C(=O)N2)NC(=O)[C@H](CSSC[C@@H](C(=O)N[C@@H](CCCCN)C(=O)N[C@@H](Cc2ccc(O)cc2)C(=O)N[C@H](C(=O)N[C@@H](Cc2ccccc2)C(N)=O)C(C)C)NC(=O)[C@H](Cc2c[nH]c4ccccc24)NC(=O)[C@H](CCCCN)NC(=O)[C@H](Cc2c[nH]cn2)NC(=O)[C@H]([C@@H](C)O)NC(=O)[C@H](CCCNC(=N)N)NC(=O)[C@H](CO)NC3=O)NC(=O)[C@H](CCCCN)NC(=O)[C@H](CC(=O)O)NC(=O)[C@H](CC(N)=O)NC(=O)[C@H](CC(=O)O)NC(=O)[C@@H]2CCCN2C1=O` [SEQ ID NO: 266] (H-DCLGHMRKCIPDNDKCCRPNLVCSRTHKWCKYVF-NH2; disulfide 2-17, 9-23, 16-30), for which the IC50 amounted to 6.62 µM at hNav1.5 (setting [2]); 8370 nM on hNav1.3 (setting [2]); 4740 nM on hNav1.7 (IonWorks Quattro, clamped to −110 mV, depolarized to −10 mV, 5 min after compound, n=2, read-out: IWQ Use Nav1.7).
For `CC[C@H](C)[C@@H]1NC(=O)[C@@H]2CSSC[C@@H]3NC(=O)[C@H](C(C)C)NC(=O)[C@H](CC(C)C)NC(=O)[C@H](CC(N)=O)NC(=O)[C@@H]4CCCN4C(=O)[C@H](CCCNC(=N)N)NC(=O)[C@H](CSSC[C@H](NC(=O)[C@@H](N)CC(=O)O)C(=O)N[C@@H](CC(C)C)C(=O)NCC(=O)N[C@@H](C)C(=O)N[C@@H](CCSC)C(=O)N[C@@H](CCCNC(=N)N)C(=O)N[C@@H](CCCCN)C(=O)N2)NC(=O)[C@H](CSSC[C@@H](C(=O)N[C@@H](CCCCN)C(=O)N[C@@H](Cc2ccc(O)cc2)C(=O)N[C@@H](Cc2c[nH]c4ccccc24)C(=O)N[C@@H](Cc2ccccc2)C(N)=O)NC(=O)[C@H](Cc2c[nH]c4ccccc24)NC(=O)[C@H](CCCCN)NC(=O)[C@H](Cc2c[nH]cn2)NC(=O)[C@H]([C@@H](C)O)NC(=O)[C@H](CCCNC(=N)N)NC(=O)[C@H](CO)NC3=O)NC(=O)[C@H](CCCCN)NC(=O)[C@H](CC(=O)O)NC(=O)[C@H](CC(N)=O)NC(=O)[C@H](CC(=O)O)NC(=O)[C@@H]2CCCN2C1=O` [compound 252] (H-DCLGAMRKCIPDNDKCCRPNLVCSRTHKWCKYWF-NH2; disulfide 2-17, 9-23, 16-30), the IC50 at hNav1.5 (use-dependent block, hNav1.5) is 5 µM; at hNav1.3 (use-dependent block, hNav1.3), 400 nM; on hNav1.7 (setting [1]) it was 230 nM.
In the case of `CC[C@H](C)[C@@H]1NC(=O)[C@@H]2CSSC[C@@H]3NC(=O)[C@H](C(C)C)NC(=O)[C@H](CC(C)C)NC(=O)[C@H](CC(N)=O)NC(=O)[C@@H]4CCCN4C(=O)[C@H](CCCNC(=N)N)NC(=O)[C@H](CSSC[C@H](NC(=O)[C@@H](N)CC(=O)O)C(=O)N[C@@H](CC(C)C)C(=O)NCC(=O)N[C@@H](Cc4ccccc4)C(=O)N[C@@H](CCSC)C(=O)N[C@@H](CCCNC(=N)N)C(=O)N[C@@H](CCCCN)C(=O)N2)NC(=O)[C@H](CSSC[C@@H](C(=O)N[C@@H](CCCCN)C(=O)N[C@@H](Cc2ccccc2)C(=O)N[C@H](C(=O)N[C@@H](Cc2ccccc2)C(N)=O)C(C)C)NC(=O)[C@H](Cc2c[nH]c4ccccc24)NC(=O)[C@H](CCCCN)NC(=O)[C@H](Cc2c[nH]cn2)NC(=O)[C@H]([C@@H](C)O)NC(=O)[C@H](CCCNC(=N)N)NC(=O)[C@H](CO)NC3=O)NC(=O)[C@H](CCCCN)NC(=O)[C@H](CC(=O)O)NC(=O)[C@H](CC(N)=O)NC(=O)[C@H](CC(=O)O)NC(=O)[C@@H]2CCCN2C1=O` [compound 377] (H-DCLGFMRKCIPDNDKCCRPNLVCSRTHKWCKFVF-NH2; disulfide 2-17, 9-23, 16-30), the IC50 stood at 6.84 µM on hNav1.5 (Table 25, use, […]); 50 nM at hNav1.3 (Table 25, use, […]); 50 nM on hNav1.7 (Table 25, IonWorks Quattro, use, […], read-out: IWQ Use Nav1.7).
Turning to `CC[C@H](C)[C@@H]1NC(=O)[C@@H]2CSSC[C@@H]3NC(=O)[C@H](C(C)C)NC(=O)[C@H](CC(C)C)NC(=O)[C@H](CC(N)=O)NC(=O)[C@@H]4CCCN4C(=O)[C@H](CCCNC(=N)N)NC(=O)[C@H](CSSC[C@H](NC(=O)[C@@H](N)CC(=O)O)C(=O)N[C@@H](CC(C)C)C(=O)NCC(=O)N[C@@H](Cc4ccccc4)C(=O)N[C@@H](CCSC)C(=O)N[C@@H](CCCNC(=N)N)C(=O)N[C@@H](CCCCN)C(=O)N2)NC(=O)[C@H](CSSC[C@@H](C(=O)N[C@@H](CCCCN)C(=O)N[C@@H](Cc2ccc(O)cc2)C(=O)N[C@H](C(=O)N[C@@H](Cc2ccccc2)C(N)=O)C(C)C)NC(=O)[C@H](Cc2c[nH]c4ccccc24)NC(=O)[C@H](CCCCN)NC(=O)[C@H](Cc2ccccc2)NC(=O)[C@H]([C@@H](C)O)NC(=O)[C@H](CCCNC(=N)N)NC(=O)[C@H](CO)NC3=O)NC(=O)[C@H](CCCCN)NC(=O)[C@H](CC(=O)O)NC(=O)[C@H](CC(N)=O)NC(=O)[C@H](CC(=O)O)NC(=O)[C@@H]2CCCN2C1=O` [compound 109] (H-DCLGFMRKCIPDNDKCCRPNLVCSRTFKWCKYVF-NH2; disulfide 2-17, 9-23, 16-30), the IC50 on hNav1.5 (Table 23, use, […]) is 2.06 µM; on hNav1.3 (Table 23, use, […]) it was 530 nM; on hNav1.7 (Table 23, IonWorks Quattro, use, […], read-out: IWQ Use Nav1.7), 220 nM.
